Source: US20020111274A1, “1-alkyl-3-[1-(substituted phenyl) benzotriazol-6-yl] uracils” (BASF Aktiengesellschaft, priority 2000, published 2002)

Columns and labels:
Design in all cases: scale not given here
ABUTH Velvetleaf [1] = experiment: Postemergence herbicidal evaluation, ABUTH; format: in vivo, Abutilon theophrasti, Medic.; details: rated two - three weeks after treatment
Procedure, shortened: (§1)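 Ratings from greenhouse plants scored about two to three weeks after a foliar spray; data from multiple tests averaged. Seedlings about two weeks old received roughly 0.006–0.400 kg/ha active compound in 80/20 acetone/water with 1.0% methylated seed oil.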

AMBEL Ragweed, Common [2] = experiment: Postemergence herbicidal evaluation, AMBEL; format: in vivo, Ambrosia artemisifolia, L.; details: rated two - three weeks after treatment
Procedure, shortened: as §1

CASOB Sicklepod [3] = experiment: Postemergence herbicidal evaluation, CASOB; format: in vivo, Cassia obtusifolia, L.; details: rated two - three weeks after treatment
Procedure, shortened: as §1

[4] = tested on: CHEAL Lambsquarters, Common; experiment: Postemergence herbicidal evaluation, CHEAL; format: in vivo, Chenopodium album, L.; details: rated two - three weeks after treatment
Procedure, shortened: as §1

ECHOG Barnyardgrass [5] = experiment: Postemergence herbicidal evaluation, ECHOG; format: in vivo, Echinochloa crus-galli, (L.) Beau; details: rated two - three weeks after treatment
Procedure, shortened: as §1

GALAP Galium [6] = experiment: Postemergence herbicidal evaluation, GALAP; format: in vivo, Galium aparine; details: rated two - three weeks after treatment
Procedure, shortened: as §1

[7] = tested on: IPOHE Morningglory, Ivyleaf; experiment: Postemergence herbicidal evaluation, IPOHE; format: in vivo, Ipomoea hederacea, (L.) Jacq.; details: rated two - three weeks after treatment
Procedure, shortened: as §1

SETVI Foxtail, Green [8] = experiment: Postemergence herbicidal evaluation, SETVI; format: in vivo, Setaria viridis, (L.) Beau; details: rated two - three weeks after treatment
Procedure, shortened: as §1

GLXMAW Soybean, Williams [9] = experiment: Postemergence herbicidal evaluation, GLXMAW; format: in vivo, Glycine max, (L.) Merr. cv Williams; details: rated two - three weeks after treatment
Procedure, shortened: as §1

[10] = tested on: TRZAWR Wheat, Winter, cv Riband; experiment: Postemergence herbicidal evaluation, TRZAWR; format: in vivo, Triticum aestivum; details: rated two - three weeks after treatment
Procedure, shortened: as §1

ORYSAT Rice, Tebonnet [11] = experiment: Postemergence herbicidal evaluation, ORYSAT; format: in vivo, Oryza sativa, (L.); details: rated two - three weeks after treatment
Procedure, shortened: as §1

ZEAMX Corn, Field [12] = experiment: Postemergence herbicidal evaluation, ZEAMX; format: in vivo, Zea mays, L. (Sammel-Bezeichnung); details: rated two - three weeks after treatment
Procedure, shortened: as §1

ABUTH Velvetleaf [13] = experiment: Preemergence herbicidal evaluation, ABUTH; format: in vivo, Abutilon theophrasti, Medic.; details: rated four to five weeks after treatment
Procedure, shortened: (§2)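 Preemergence soil spray: aqueous acetone, ~0.013–0.800 kg/ha, applied right after sowing (seed/potting-soil mix over ~1 in soil). Greenhouse, routine watering. Scored 4–5 wk post-treatment on a rating scale.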

AMBEL Ragweed, Common [14] = experiment: Preemergence herbicidal evaluation, AMBEL; format: in vivo, Ambrosia artemisifolia, L.; details: rated four to five weeks after treatment
Procedure, shortened: as §2

CASOB Sicklepod [15] = experiment: Preemergence herbicidal evaluation, CASOB; format: in vivo, Cassia obtusifolia, L.; details: rated four to five weeks after treatment
Procedure, shortened: as §2

[16] = tested on: CHEAL Lambsquarters, Common; experiment: Preemergence herbicidal evaluation, CHEAL; format: in vivo, Chenopodium album, L.; details: rated four to five weeks after treatment
Procedure, shortened: as §2

ECHOG Barnyardgrass [17] = experiment: Preemergence herbicidal evaluation, ECHOG; format: in vivo, Echinochloa crus-galli, (L.) Beau; details: rated four to five weeks after treatment
Procedure, shortened: as §2

GALAP Galium [18] = experiment: Preemergence herbicidal evaluation, GALAP; format: in vivo, Galium aparine; details: rated four to five weeks after treatment
Procedure, shortened: as §2

[19] = tested on: IPOHE Morningglory, Ivyleaf; experiment: Preemergence herbicidal evaluation, IPOHE; format: in vivo, Ipomoea hederacea, (L.) Jacq.; details: rated four to five weeks after treatment
Procedure, shortened: as §2

SETVI Foxtail, Green [20] = experiment: Preemergence herbicidal evaluation, SETVI; format: in vivo, Setaria viridis, (L.) Beau; details: rated four to five weeks after treatment
Procedure, shortened: as §2

GLXMAW Soybean, Williams [21] = experiment: Preemergence herbicidal evaluation, GLXMAW; format: in vivo, Glycine max, (L.) Merr. cv Williams; details: rated four to five weeks after treatment
Procedure, shortened: as §2

[22] = tested on: TRZAWR Wheat, Winter, cv Riband; experiment: Preemergence herbicidal evaluation, TRZAWR; format: in vivo, Triticum aestivum; details: rated four to five weeks after treatment
Procedure, shortened: as §2

ORYSAT Rice, Tebonnet [23] = experiment: Preemergence herbicidal evaluation, ORYSAT; format: in vivo, Oryza sativa, (L.); details: rated four to five weeks after treatment
Procedure, shortened: as §2

ZEAMX Corn, Field [24] = experiment: Preemergence herbicidal evaluation, ZEAMX; format: in vivo, Zea mays, L. (Sammel-Bezeichnung); details: rated four to five weeks after treatment
Procedure, shortened: as §2

COC(=O)COc1ccc(-n2nnc3cc(F)c(-n4c(=O)cc(C(F)(F)F)n(C)c4=O)cc32)cc1 [Example 45]
5.0: Postemergence herbicidal rating CASOB (CASOB Sicklepod [3]; rate 0.062 kg/ha) | Postemergence herbicidal rating ECHCG (ECHOG Barnyardgrass [5]; rate 0.016 kg/ha) | Preemergence herbicidal rating, ORYSAT (ORYSAT Rice, Tebonnet [23]; rate 0.125 kg/ha)
1.0: Postemergence herbicidal rating GALAP (GALAP Galium [6]; rate 0.032 kg/ha) | Postemergence herbicidal rating ORYSAT (ORYSAT Rice, Tebonnet [11]; rate 0.016 kg/ha) | Preemergence herbicidal rating, GLXMAW (GLXMAW Soybean, Williams [21]; rate 0.125 kg/ha) | Preemergence herbicidal rating, TRZAWR ([22]; rate 0.125 kg/ha)
3.0: Postemergence herbicidal rating AMBEL (AMBEL Ragweed, Common [2]; rate 0.016 kg/ha) | Postemergence herbicidal rating GALAP (GALAP Galium [6]; rate 0.062 kg/ha) | Postemergence herbicidal rating SETVI (SETVI Foxtail, Green [8]; rate 0.008 kg/ha)
0.5: Postemergence herbicidal rating ORYSAT (ORYSAT Rice, Tebonnet [11]; rate 0.008 kg/ha)
2.0: Postemergence herbicidal rating AMBEL (AMBEL Ragweed, Common [2]; rate 0.008 kg/ha) | Postemergence herbicidal rating CHEAL ([4]; rate 0.008 kg/ha) | Postemergence herbicidal rating ORYSAT (ORYSAT Rice, Tebonnet [11]; rate 0.032 kg/ha)
9.0: Postemergence herbicidal rating ABUTH (ABUTH Velvetleaf [1]; rate 0.008 kg/ha) | Postemergence herbicidal rating ABUTH (ABUTH Velvetleaf [1]; rate 0.016 kg/ha) | Postemergence herbicidal rating ABUTH (ABUTH Velvetleaf [1]; rate 0.032 kg/ha) | Postemergence herbicidal rating ABUTH (ABUTH Velvetleaf [1]; rate 0.062 kg/ha) | Postemergence herbicidal rating AMBEL (AMBEL Ragweed, Common [2]; rate 0.062 kg/ha) | Postemergence herbicidal rating ECHCG (ECHOG Barnyardgrass [5]; rate 0.062 kg/ha) | Postemergence herbicidal rating IPOHE ([7]; rate 0.008 kg/ha) | Postemergence herbicidal rating IPOHE ([7]; rate 0.016 kg/ha) | Postemergence herbicidal rating IPOHE ([7]; rate 0.032 kg/ha) | Postemergence herbicidal rating IPOHE ([7]; rate 0.062 kg/ha) | Postemergence herbicidal rating SETVI (SETVI Foxtail, Green [8]; rate 0.032 kg/ha) | Postemergence herbicidal rating SETVI (SETVI Foxtail, Green [8]; rate 0.062 kg/ha) | Postemergence herbicidal rating ZEAMX (ZEAMX Corn, Field [12]; rate 0.062 kg/ha) | Preemergence herbicidal rating, ABUTH (ABUTH Velvetleaf [13]; rate 0.125 kg/ha) | Preemergence herbicidal rating, CHEAL ([16]; rate 0.062 kg/ha) | Preemergence herbicidal rating, CHEAL ([16]; rate 0.125 kg/ha) | Preemergence herbicidal rating, SETVI (SETVI Foxtail, Green [20]; rate 0.062 kg/ha) | Preemergence herbicidal rating, SETVI (SETVI Foxtail, Green [20]; rate 0.125 kg/ha)
7.5: Postemergence herbicidal rating ZEAMX (ZEAMX Corn, Field [12]; rate 0.008 kg/ha)
6.5: Postemergence herbicidal rating GLXMAW (GLXMAW Soybean, Williams [9]; rate 0.016 kg/ha)
8.0: Postemergence herbicidal rating ECHCG (ECHOG Barnyardgrass [5]; rate 0.032 kg/ha) | Postemergence herbicidal rating SETVI (SETVI Foxtail, Green [8]; rate 0.016 kg/ha) | Postemergence herbicidal rating GLXMAW (GLXMAW Soybean, Williams [9]; rate 0.032 kg/ha) | Postemergence herbicidal rating GLXMAW (GLXMAW Soybean, Williams [9]; rate 0.062 kg/ha) | Postemergence herbicidal rating TRZAWR ([10]; rate 0.062 kg/ha) | Postemergence herbicidal rating ZEAMX (ZEAMX Corn, Field [12]; rate 0.016 kg/ha) | Postemergence herbicidal rating ZEAMX (ZEAMX Corn, Field [12]; rate 0.032 kg/ha)
6.0: Postemergence herbicidal rating GLXMAW (GLXMAW Soybean, Williams [9]; rate 0.008 kg/ha) | Postemergence herbicidal rating TRZAWR ([10]; rate 0.016 kg/ha) | Postemergence herbicidal rating TRZAWR ([10]; rate 0.032 kg/ha)
3.5: Postemergence herbicidal rating ORYSAT (ORYSAT Rice, Tebonnet [11]; rate 0.062 kg/ha)
4.0: Postemergence herbicidal rating CASOB (CASOB Sicklepod [3]; rate 0.032 kg/ha) | Postemergence herbicidal rating CHEAL ([4]; rate 0.016 kg/ha) | Postemergence herbicidal rating TRZAWR ([10]; rate 0.008 kg/ha) | Preemergence herbicidal rating, ABUTH (ABUTH Velvetleaf [13]; rate 0.062 kg/ha) | Preemergence herbicidal rating, GALAP (GALAP Galium [18]; rate 0.062 kg/ha) | Preemergence herbicidal rating, GALAP (GALAP Galium [18]; rate 0.125 kg/ha) | Preemergence herbicidal rating, IPOHE ([19]; rate 0.125 kg/ha)
0.0: Postemergence herbicidal rating CASOB (CASOB Sicklepod [3]; rate 0.008 kg/ha) | Postemergence herbicidal rating CASOB (CASOB Sicklepod [3]; rate 0.016 kg/ha) | Postemergence herbicidal rating ECHCG (ECHOG Barnyardgrass [5]; rate 0.008 kg/ha) | Postemergence herbicidal rating GALAP (GALAP Galium [6]; rate 0.008 kg/ha) | Postemergence herbicidal rating GALAP (GALAP Galium [6]; rate 0.016 kg/ha) | Preemergence herbicidal rating, ABUTH (ABUTH Velvetleaf [13]; rate 0.016 kg/ha) | Preemergence herbicidal rating, ABUTH (ABUTH Velvetleaf [13]; rate 0.032 kg/ha) | Preemergence herbicidal rating, AMBEL (AMBEL Ragweed, Common [14]; rate 0.016 kg/ha) | Preemergence herbicidal rating, AMBEL (AMBEL Ragweed, Common [14]; rate 0.032 kg/ha) | Preemergence herbicidal rating, AMBEL (AMBEL Ragweed, Common [14]; rate 0.062 kg/ha) | Preemergence herbicidal rating, AMBEL (AMBEL Ragweed, Common [14]; rate 0.125 kg/ha) | Preemergence herbicidal rating, CASOB (CASOB Sicklepod [15]; rate 0.016 kg/ha) | Preemergence herbicidal rating, CASOB (CASOB Sicklepod [15]; rate 0.032 kg/ha) | Preemergence herbicidal rating, CASOB (CASOB Sicklepod [15]; rate 0.062 kg/ha) | Preemergence herbicidal rating, CHEAL ([16]; rate 0.016 kg/ha) | Preemergence herbicidal rating, CHEAL ([16]; rate 0.032 kg/ha) | Preemergence herbicidal rating, ECHCG (ECHOG Barnyardgrass [17]; rate 0.016 kg/ha) | Preemergence herbicidal rating, ECHCG (ECHOG Barnyardgrass [17]; rate 0.032 kg/ha) | Preemergence herbicidal rating, ECHCG (ECHOG Barnyardgrass [17]; rate 0.062 kg/ha) | Preemergence herbicidal rating, ECHCG (ECHOG Barnyardgrass [17]; rate 0.125 kg/ha) | Preemergence herbicidal rating, GALAP (GALAP Galium [18]; rate 0.016 kg/ha) | Preemergence herbicidal rating, GALAP (GALAP Galium [18]; rate 0.032 kg/ha) | Preemergence herbicidal rating, IPOHE ([19]; rate 0.016 kg/ha) | Preemergence herbicidal rating, IPOHE ([19]; rate 0.032 kg/ha) | Preemergence herbicidal rating, IPOHE ([19]; rate 0.062 kg/ha) | Preemergence herbicidal rating, SETVI (SETVI Foxtail, Green [20]; rate 0.016 kg/ha) | Preemergence herbicidal rating, SETVI (SETVI Foxtail, Green [20]; rate 0.032 kg/ha) | Preemergence herbicidal rating, GLXMAW (GLXMAW Soybean, Williams [21]; rate 0.016 kg/ha) | Preemergence herbicidal rating, GLXMAW (GLXMAW Soybean, Williams [21]; rate 0.032 kg/ha) | Preemergence herbicidal rating, GLXMAW (GLXMAW Soybean, Williams [21]; rate 0.062 kg/ha) | Preemergence herbicidal rating, TRZAWR ([22]; rate 0.016 kg/ha) | Preemergence herbicidal rating, TRZAWR ([22]; rate 0.032 kg/ha) | Preemergence herbicidal rating, TRZAWR ([22]; rate 0.062 kg/ha) | Preemergence herbicidal rating, ORYSAT (ORYSAT Rice, Tebonnet [23]; rate 0.016 kg/ha) | Preemergence herbicidal rating, ORYSAT (ORYSAT Rice, Tebonnet [23]; rate 0.032 kg/ha) | Preemergence herbicidal rating, ORYSAT (ORYSAT Rice, Tebonnet [23]; rate 0.062 kg/ha) | Preemergence herbicidal rating, ZEAMX (ZEAMX Corn, Field [24]; rate 0.016 kg/ha) | Preemergence herbicidal rating, ZEAMX (ZEAMX Corn, Field [24]; rate 0.032 kg/ha) | Preemergence herbicidal rating, ZEAMX (ZEAMX Corn, Field [24]; rate 0.062 kg/ha) | Preemergence herbicidal rating, ZEAMX (ZEAMX Corn, Field [24]; rate 0.125 kg/ha)
7.0: Postemergence herbicidal rating AMBEL (AMBEL Ragweed, Common [2]; rate 0.032 kg/ha) | Postemergence herbicidal rating CHEAL ([4]; rate 0.032 kg/ha) | Postemergence herbicidal rating CHEAL ([4]; rate 0.062 kg/ha)
